Data set [1] can be described thus: Photostability after UV irradiation, HPLC. In kind it is physicochemical. As for the experimental part:
(§1) Compound #2 (OOD), Univul A plus (DHHB), Octocrylene (OCR), and Univul A plus (DHHB)+Octocrylene (OCR) were dissolved in Ethanol at 1 mM and were irradiated at 2000 and 4000 J/dm2 for 1 h and 2 h in a 24-well plate, respectively, in 2 replicates (1 replicate for HPLC and 1 replicate for absorbance spectra).
(§2) Compound #4 (OHD), Univul A plus (DHHB), Octocrylene (OCR), and Univul A plus (DHHB)+Octocrylene (OCR) were dissolved in Ethanol at 1 mM and were irradiated at 2000 and 4000 J/dm2 for 1 h and 2 h in a 24-well plate, respectively, in 2 replicates (1 replicate for HPLC and 1 replicate for absorbance spectra).
(§3) Compound #5 (BOO), Tinosorb S (BEMT), and Octocrylene (OCR) were dissolved in Dubdis at 2 mM and were irradiated at 4000 J/dm2 for 2 h in a 24-well plate, respectively, in 2 replicates (1 replicate for HPLC and 1 replicate for absorbance spectra).

Data set [2] is described as follows: Photostability after UV irradiation, absorbance spectra. In kind it is physicochemical. Conditions: for Absorbance peak, Without UV irradiation / Absorbance peak, Irradiation 2000 J/dm2 / Absorbance peak, Irradiation 4000 J/dm2 / λmax after irradiation / Effect of irradiation on UV absorbance profile: Ethanol; for Absorbance peak, Without UV irradiation / Absorbance peak, Irradiation 2000 J/dm2 / Absorbance peak, Irradiation 4000 J/dm2: 1 mM; for Absorbance peak, Irradiation 2000 J/dm2: 1 h; for λmax after irradiation / Effect of irradiation on UV absorbance profile: 2000 or 4000 J/dm2 for 1 or 2 hours; for Effect of irradiation on UV absorbance profile: UVB and UVA range. As for the experimental part: as §1, §2, §3

Data set [3] in a line: UV absorbance profile: λmax in solvents, FLUOstar plate reader. Type of data set: physicochemical. Conditions: 125 μM. Here is the method:
Compound #2 (OOD), Univul A plus (DHHB)+Octocrylene (OCR) were dissolved in a solvent at the same concentration (125 μM).
Compound #4 (OHD), Univul A plus (DHHB)+Octocrylene (OCR) were dissolved in a solvent at the same concentration (125 μM).
Compound #5 (BOO) and BEMT (6,6′-(6-(4-methoxyphenyl)-1,3,5-triazine-2,4-diyl)bis(3-((2-ethylhexyl)oxy)phenol)=Tinosorb S)+Octocrylene (OCR) were dissolved in a solvent at the same concentration (50 μM).
UV Absorbance Profil of Compound #6 (BOO-OM) Compound #6 (BOO-OM) and BEMT (6,6′-(6-(4-methoxyphenyl)-1,3,5-triazine-2,4-diyl)bis(3-((2-ethylhexyl)oxy)phenol)=Tinosorb S)+Octocrylene (OCR) were dissolved in a solvent at the same concentration (50 μM).

The test system of data set [4] is pig skin. Nature of the data set: UV protection ex vivo on pig skin by autofluorescence quenching. The conditions noted are these: Dottisol. As for the experimental part:
UV Protection Performance of Compound #2 (OOD) UVB and UVA protections have been assessed ex vivo on pig skin by measuring the autofluorescence quenching. OOD (Compound #2), the mix of DHHB+OCR were solubilized at the same molar concentration in Dottisol (isosorbide dimethyl ether), covered 6.25 cm2 skin square and incubated 20 min or 2 hours at room temperatures, and then 7 mm skin punches were cut and placed in a black 96-well plate. UVB and UVA protections were measured after respectively an excitation at 300 nm and 355 nm and a fluorescence emission was read at 460 nm. DMSO was added on the pig skin before the reading of the residual fluorescence.
UVB and UVA protections have been assessed ex vivo on pig skin by measuring the autofluorescence quenching. BOO (Compound #5) and the mix of BEMT+OCR were solubilized at the same molar concentration in Dottisol (isosorbide dimethyl ether), covered 6.25 cm^2 skin square and incubated 4 hours at 34° C., washed or not with 10 mL Ethanol for 5 min, and then 7 mm diameter skin punches were cut and placed in a black 96-well plate. UVB and UVA protections were measured after respectively an excitation at 300 nm and 355 nm and a fluorescence emission was read at 460 nm.
UVB protection has been assessed ex vivo on pig skin by measuring the autofluorescence quenching. BOO (Compound #5), BOO-OM (Compound #6) and the mix of BEMT+OCR were solubilized at the same molar concentration in DMDA (dimethyl capramide), covered 6.25 cm2 skin square and incubated 2 hours at 34° C., washed or not with 10 mL Ethanol for 5 min, and then 7 mm diameter skin punches were cut and placed in a black 96-well plate. UVB protection was measured after respectively an excitation at 300 nm and a fluorescence emission was read at 460 nm.

Data set [5] is described as follows: Solubility in sunscreen solvents. Type of data set: physicochemical. The conditions noted are these: 50° C. Here is the method: Compound #2 (OOD) and a sunscreen solvent were weighed in a Becher. The Becher was placed on a magnetic stir plate, heated up to 50° C., and the solution was vigorously mixed with a bar magnet.
Compound #4 (OHD) and a sunscreen solvent were weighed in a Becher. The Becher was placed on a magnetic stir plate, heated up to 50° C., and the solution was vigorously mixed with a bar magnet.
Compound #5 (BOO) and a sunscreen solvent were weighed in a Becher. The Becher was placed on a magnetic stir plate, heated up to 50° C., and the solution was vigorously mixed with a bar magnet.
Compound #6 (BOO-OM) and a sunscreen solvent were weighed in a Becher. The Becher was placed on a magnetic stir plate, heated up to 50° C., and the solution was vigorously mixed with a bar magnet.

[6] abbreviates: Cetiol HE (PEG-7 Glyceryl Cocoate).
Setting [7] is: pig skin autofluorescence after 2 h of incubation, Mean +/− SD, N = 3.

Several values for one entry are separate records, joined by “and”; a condition that tells them apart may be missing. Identical values can stand only once.

Take `CCCCC(CC)COc1ccc(-c2nc(-c3ccc(OC)cc3)nc(-c3ccc(OCC(CC)CCCC)cc3O)n2)c(O)c1` (centres unmarked) [BEMT, 6,6′-(6-(4-methoxyphenyl)-1,3,5-triazine-2,4-diyl)bis(3-((2-ethylhexyl)oxy)phenol), reference compound]: in data set [1] (Dubdis), the “degradation observed by HPLC after irradiation” value (shortened to “degradation observed by HPLC”) is “No degradation”. Also, in data set [2] (Dubdis, 2 mM), the “Absorbance peak, Without UV irradiation, first or only peak” value was 310 nm and the “Absorbance peak, Without UV irradiation, second peak” value worked out at 351 nm. Also, in data set [2] (Dubdis, 2 mM, 2 h), the “Absorbance peak, Irradiation 4000 J/dm2, first or only peak” value came to 310 nm and the “Absorbance peak, Irradiation 4000 J/dm2, second peak” value amounted to 351 nm.

In data set [3] (Cetiol B (Dibutyl Adipate)), `CCN(CC)c1ccc(C(=O)c2ccccc2C(=O)NCCCCCCCCOC(=O)C(C#N)=C(c2ccccc2)c2ccccc2)c(O)c1` [Compound #2, 8-[[2-[4-(diethylamino)-2-hydroxy-benzoyl]benzoyl]amino]octyl 2-cyano-3,3-diphenyl-prop-2-enoate] gave a λmax of 355 nm. In data set [3] (setting [6]), this compound showed a λmax of 355 nm. The same compound returned a λmax in data set [3] (DMSO) of 356 nm. The λmax in data set [3] (Dubdis (diisopropyl sebacate), listed as OOD) was 355 nm and 356 nm. The compound also had a λmax in data set [3] (Ethanol) of 356 nm. In data set [1] (Ethanol), the “degradation observed by HPLC” value is given as “No degradation”; the “purity by HPLC after irradiation” value stood at 98.80%; the “purity by HPLC, non-irradiated” value is listed as 99.17%. In data set [2], the “Absorbance peak, Without UV irradiation” value amounted to 357 nm; the “Absorbance peak, Irradiation 2000 J/dm2” value is recorded as 357 nm; the λmax after irradiation is 357 nm; the “Effect of irradiation on UV absorbance profile” value is on record as “did not modify”. The “Absorbance peak, Irradiation 4000 J/dm2” value in data set [2] (2 h) is on record as 357 nm. In addition, the “UVA and UVB protections of the pig skin compared to the mix OCR+DHHB” value in data set [4] (2 h incubation) was “similar”. For the same compound, in data set [4] (setting [7]), the “UVA Fluorescence (Ex355/Em460)” value is recorded as 2881 +/− 617 and the “UVB Fluorescence (Ex300/Em460)” value was 15248 +/− 3227. The soluble at ratio in data set [5] (Cetiol B (Dibutyl Adipate)) is given as 1/1. Further, in data set [5] (setting [6]), the soluble at ratio result is reported as “⅕”. Also, in data set [5] (Dubdis (Diisopropyl sebacate)), the soluble at ratio was 1/1.

Turning to `CCN(CC)c1ccc(C(=O)c2ccccc2C(=O)NCCCCCCOC(=O)C(C#N)=C(c2ccccc2)c2ccccc2)c(O)c1` [Compound #4, 6-[[2-[4-(diethylamino)-2-hydroxy-benzoyl]benzoyl]amino]hexyl 2-cyano-3,3-diphenyl-prop-2-enoate], in data set [3] (DMSO), the λmax is on record as 356 nm. This compound showed a λmax in data set [3] (Ethanol) of 356 nm. In addition, in data set [1] (Ethanol), the “degradation observed by HPLC” value was “No degradation”; the “purity by HPLC after irradiation” value was 97.84%; the “purity by HPLC, non-irradiated” value was determined as 98.13%. Moreover, in data set [2], the “Absorbance peak, Without UV irradiation” value came to 358 nm; the “Absorbance peak, Irradiation 2000 J/dm2” value turned out to be 357 nm; the λmax after irradiation was found to be 357 nm; the “Effect of irradiation on UV absorbance profile” value is reported as “did not modify”. Further, in data set [2] (2 h), the “Absorbance peak, Irradiation 4000 J/dm2” value is given as 357 nm. In data set [5] (Cetiol B (Dibutyl Adipate)), the soluble at ratio entry is listed as “⅓”. Moreover, the soluble at ratio in data set [5] (Dimethyl capramide (Spectrasolv DMDA)) was 1/1.

`CCCCCCOC(=O)c1ccccc1C(=O)c1ccc(N(CC)CC)cc1O` [DHHB, diethylamino hydroxybenzoyl hexyl benzoate, reference compound]: the “degradation observed by HPLC” value in data set [1] (Ethanol) is reported as “No degradation”. In addition, in data set [2], the “Absorbance peak, Without UV irradiation” value is 357 nm and the “Absorbance peak, Irradiation 2000 J/dm2” value was 357 nm. For the same compound, the “Absorbance peak, Irradiation 4000 J/dm2” value in data set [2] (2 h) turned out to be 357 nm.

As to `CCCCC(CC)COC(=O)C(C#N)=C(c1ccccc1)c1ccccc1` (centres unmarked) [OCR, 2-ethylhexyl 2 cyano-3,3-diphenylacrylate, reference compound], in data set [1] (Dubdis), the “degradation observed by HPLC” value is reported as “No degradation”. The “degradation observed by HPLC” value in data set [1] (Ethanol) was “No degradation”. In addition, the “Absorbance peak, Without UV irradiation, first or only peak” value in data set [2] (Dubdis, 2 mM) was determined as 305 nm. In addition, the “Absorbance peak, Irradiation 4000 J/dm2, first or only peak” value in data set [2] (Dubdis, 2 mM, 2 h) stood at 309 nm. In addition, in data set [2], the “Absorbance peak, Without UV irradiation” value was found to be 304 nm and the “Absorbance peak, Irradiation 2000 J/dm2” value is 304 nm. Besides, the “Absorbance peak, Irradiation 4000 J/dm2” value in data set [2] (2 h) is reported as 304 nm.

These data come from patent US20260240740A1, “MULTI-PHOTOPROTECTIVE COMPOUNDS AND USES THEREOF” (SKINOSIVE, priority 2022, published 2026).
